According to PMC6437697 (Journal of Medicinal Chemistry, 2019):

Tests used:
Test in all cases: KINOMEscan
Assay type in all cases: binding
Settings in all cases: read-out: % control activity remaining
[1] = molecular target: T1, PIP5K2B (Homo sapiens, UniProt P78356)
T1 construct: purchased Eurofins DiscoverX KINOMEscan
T1 sequence (P78356 1-416): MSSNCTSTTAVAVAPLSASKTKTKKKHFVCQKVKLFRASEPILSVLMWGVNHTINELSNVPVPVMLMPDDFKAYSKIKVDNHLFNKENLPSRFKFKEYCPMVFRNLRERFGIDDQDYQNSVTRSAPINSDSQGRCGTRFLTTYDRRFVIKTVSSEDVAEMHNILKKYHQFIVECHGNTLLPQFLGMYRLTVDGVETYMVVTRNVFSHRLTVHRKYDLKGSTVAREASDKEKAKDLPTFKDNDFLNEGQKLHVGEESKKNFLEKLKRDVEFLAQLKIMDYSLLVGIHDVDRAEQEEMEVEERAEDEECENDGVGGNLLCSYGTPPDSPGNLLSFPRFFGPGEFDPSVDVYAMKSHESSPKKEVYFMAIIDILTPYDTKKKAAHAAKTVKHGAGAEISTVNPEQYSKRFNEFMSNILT

[2] = molecular target: T2, CASK (Homo sapiens, UniProt O14936)
T2 construct: purchased Eurofins DiscoverX KINOMEscan
T2 sequence (O14936 1-926): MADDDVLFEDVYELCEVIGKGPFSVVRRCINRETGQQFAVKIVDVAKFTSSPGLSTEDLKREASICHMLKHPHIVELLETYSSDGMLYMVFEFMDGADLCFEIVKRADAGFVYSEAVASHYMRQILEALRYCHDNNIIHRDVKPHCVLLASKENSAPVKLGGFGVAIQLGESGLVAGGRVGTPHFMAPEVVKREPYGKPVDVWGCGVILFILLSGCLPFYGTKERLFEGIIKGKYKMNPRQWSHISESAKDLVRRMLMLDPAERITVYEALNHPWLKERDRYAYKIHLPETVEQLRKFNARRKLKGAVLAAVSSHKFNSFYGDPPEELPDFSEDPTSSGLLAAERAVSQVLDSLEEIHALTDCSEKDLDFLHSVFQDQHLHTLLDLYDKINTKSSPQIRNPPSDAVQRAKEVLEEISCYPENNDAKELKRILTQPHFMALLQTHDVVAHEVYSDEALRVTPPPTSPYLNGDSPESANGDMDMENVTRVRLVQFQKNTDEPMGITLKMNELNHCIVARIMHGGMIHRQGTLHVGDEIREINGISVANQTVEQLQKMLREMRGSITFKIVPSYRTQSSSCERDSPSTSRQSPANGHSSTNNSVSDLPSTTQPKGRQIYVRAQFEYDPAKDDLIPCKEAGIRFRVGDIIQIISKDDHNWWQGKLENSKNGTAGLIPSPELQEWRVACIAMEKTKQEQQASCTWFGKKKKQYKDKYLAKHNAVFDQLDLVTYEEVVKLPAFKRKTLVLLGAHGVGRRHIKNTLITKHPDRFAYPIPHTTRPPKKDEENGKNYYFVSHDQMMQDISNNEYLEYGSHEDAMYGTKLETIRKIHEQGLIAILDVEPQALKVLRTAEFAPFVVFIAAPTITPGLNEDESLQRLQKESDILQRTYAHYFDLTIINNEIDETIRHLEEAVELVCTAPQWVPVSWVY

[3] = molecular target: T3, RET (Homo sapiens, UniProt P07949)
T3 construct: purchased Eurofins DiscoverX KINOMEscan

[4] = molecular target: T4, PIK3CA(E542K (Homo sapiens, UniProt P42336, E542K))
T4 construct: purchased Eurofins DiscoverX KINOMEscan

[5] = molecular target: T5, PIK3C2B (Homo sapiens, UniProt O00750)
T5 construct: purchased Eurofins DiscoverX KINOMEscan

[6] = molecular target: T6, NLK (Homo sapiens, UniProt Q9UBE8)
T6 construct: purchased Eurofins DiscoverX KINOMEscan
T6 sequence (Q9UBE8 1-527): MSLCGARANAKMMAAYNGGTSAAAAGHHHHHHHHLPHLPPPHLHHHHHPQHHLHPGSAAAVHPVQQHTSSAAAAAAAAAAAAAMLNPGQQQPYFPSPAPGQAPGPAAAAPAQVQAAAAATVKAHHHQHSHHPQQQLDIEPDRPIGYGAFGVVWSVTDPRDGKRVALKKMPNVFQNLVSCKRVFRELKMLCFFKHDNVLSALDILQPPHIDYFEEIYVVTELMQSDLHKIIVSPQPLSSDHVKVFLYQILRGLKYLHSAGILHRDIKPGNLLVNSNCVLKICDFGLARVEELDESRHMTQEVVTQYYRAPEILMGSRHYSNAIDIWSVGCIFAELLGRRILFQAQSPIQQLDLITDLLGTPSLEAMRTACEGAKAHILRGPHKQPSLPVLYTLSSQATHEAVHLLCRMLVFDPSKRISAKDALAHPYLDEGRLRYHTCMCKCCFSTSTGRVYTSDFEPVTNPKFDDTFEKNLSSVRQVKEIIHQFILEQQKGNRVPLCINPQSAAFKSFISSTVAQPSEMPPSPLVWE

[7] = molecular target: T7, EPHA5 (Homo sapiens, UniProt P54756)
T7 construct: purchased Eurofins DiscoverX KINOMEscan

[8] = molecular target: T8, DCAMKL2 (Homo sapiens, UniProt Q8N568)
T8 construct: purchased Eurofins DiscoverX KINOMEscan
T8 sequence (Q8N568 1-766): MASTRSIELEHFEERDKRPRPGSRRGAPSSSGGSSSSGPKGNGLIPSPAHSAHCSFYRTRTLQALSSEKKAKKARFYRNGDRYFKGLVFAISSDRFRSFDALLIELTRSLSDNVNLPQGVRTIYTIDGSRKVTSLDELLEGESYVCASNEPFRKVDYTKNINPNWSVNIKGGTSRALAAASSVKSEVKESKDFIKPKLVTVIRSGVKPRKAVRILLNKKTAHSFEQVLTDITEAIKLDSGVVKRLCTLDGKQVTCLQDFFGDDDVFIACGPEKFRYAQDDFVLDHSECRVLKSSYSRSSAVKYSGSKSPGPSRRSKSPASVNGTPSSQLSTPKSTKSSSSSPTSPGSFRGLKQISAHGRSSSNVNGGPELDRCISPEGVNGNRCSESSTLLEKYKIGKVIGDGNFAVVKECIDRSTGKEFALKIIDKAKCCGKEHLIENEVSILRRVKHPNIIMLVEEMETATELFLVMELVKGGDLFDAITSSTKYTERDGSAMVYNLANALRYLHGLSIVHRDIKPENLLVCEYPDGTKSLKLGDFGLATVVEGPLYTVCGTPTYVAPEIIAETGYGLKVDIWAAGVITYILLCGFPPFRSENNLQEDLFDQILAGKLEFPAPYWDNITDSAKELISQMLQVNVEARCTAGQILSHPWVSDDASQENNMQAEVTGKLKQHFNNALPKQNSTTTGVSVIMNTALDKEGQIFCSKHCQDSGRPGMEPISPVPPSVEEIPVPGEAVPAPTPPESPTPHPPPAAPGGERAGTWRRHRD

[9] = molecular target: T9, DAPK3 (Homo sapiens, UniProt O43293)
T9 construct: purchased Eurofins DiscoverX KINOMEscan
T9 sequence (O43293 whole entry): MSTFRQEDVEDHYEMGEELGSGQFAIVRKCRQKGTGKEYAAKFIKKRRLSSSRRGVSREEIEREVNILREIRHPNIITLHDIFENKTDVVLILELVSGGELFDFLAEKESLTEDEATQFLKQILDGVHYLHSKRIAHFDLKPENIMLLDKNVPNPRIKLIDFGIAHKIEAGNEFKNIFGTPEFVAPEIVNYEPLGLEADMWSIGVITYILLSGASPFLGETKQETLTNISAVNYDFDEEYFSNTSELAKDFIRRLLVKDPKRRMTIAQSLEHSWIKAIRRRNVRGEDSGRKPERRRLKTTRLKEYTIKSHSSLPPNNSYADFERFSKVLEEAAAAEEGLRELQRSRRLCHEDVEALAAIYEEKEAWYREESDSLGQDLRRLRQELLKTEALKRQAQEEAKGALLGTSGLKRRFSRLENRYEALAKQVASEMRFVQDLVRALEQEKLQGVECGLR

T5 sequence (O00750 whole entry): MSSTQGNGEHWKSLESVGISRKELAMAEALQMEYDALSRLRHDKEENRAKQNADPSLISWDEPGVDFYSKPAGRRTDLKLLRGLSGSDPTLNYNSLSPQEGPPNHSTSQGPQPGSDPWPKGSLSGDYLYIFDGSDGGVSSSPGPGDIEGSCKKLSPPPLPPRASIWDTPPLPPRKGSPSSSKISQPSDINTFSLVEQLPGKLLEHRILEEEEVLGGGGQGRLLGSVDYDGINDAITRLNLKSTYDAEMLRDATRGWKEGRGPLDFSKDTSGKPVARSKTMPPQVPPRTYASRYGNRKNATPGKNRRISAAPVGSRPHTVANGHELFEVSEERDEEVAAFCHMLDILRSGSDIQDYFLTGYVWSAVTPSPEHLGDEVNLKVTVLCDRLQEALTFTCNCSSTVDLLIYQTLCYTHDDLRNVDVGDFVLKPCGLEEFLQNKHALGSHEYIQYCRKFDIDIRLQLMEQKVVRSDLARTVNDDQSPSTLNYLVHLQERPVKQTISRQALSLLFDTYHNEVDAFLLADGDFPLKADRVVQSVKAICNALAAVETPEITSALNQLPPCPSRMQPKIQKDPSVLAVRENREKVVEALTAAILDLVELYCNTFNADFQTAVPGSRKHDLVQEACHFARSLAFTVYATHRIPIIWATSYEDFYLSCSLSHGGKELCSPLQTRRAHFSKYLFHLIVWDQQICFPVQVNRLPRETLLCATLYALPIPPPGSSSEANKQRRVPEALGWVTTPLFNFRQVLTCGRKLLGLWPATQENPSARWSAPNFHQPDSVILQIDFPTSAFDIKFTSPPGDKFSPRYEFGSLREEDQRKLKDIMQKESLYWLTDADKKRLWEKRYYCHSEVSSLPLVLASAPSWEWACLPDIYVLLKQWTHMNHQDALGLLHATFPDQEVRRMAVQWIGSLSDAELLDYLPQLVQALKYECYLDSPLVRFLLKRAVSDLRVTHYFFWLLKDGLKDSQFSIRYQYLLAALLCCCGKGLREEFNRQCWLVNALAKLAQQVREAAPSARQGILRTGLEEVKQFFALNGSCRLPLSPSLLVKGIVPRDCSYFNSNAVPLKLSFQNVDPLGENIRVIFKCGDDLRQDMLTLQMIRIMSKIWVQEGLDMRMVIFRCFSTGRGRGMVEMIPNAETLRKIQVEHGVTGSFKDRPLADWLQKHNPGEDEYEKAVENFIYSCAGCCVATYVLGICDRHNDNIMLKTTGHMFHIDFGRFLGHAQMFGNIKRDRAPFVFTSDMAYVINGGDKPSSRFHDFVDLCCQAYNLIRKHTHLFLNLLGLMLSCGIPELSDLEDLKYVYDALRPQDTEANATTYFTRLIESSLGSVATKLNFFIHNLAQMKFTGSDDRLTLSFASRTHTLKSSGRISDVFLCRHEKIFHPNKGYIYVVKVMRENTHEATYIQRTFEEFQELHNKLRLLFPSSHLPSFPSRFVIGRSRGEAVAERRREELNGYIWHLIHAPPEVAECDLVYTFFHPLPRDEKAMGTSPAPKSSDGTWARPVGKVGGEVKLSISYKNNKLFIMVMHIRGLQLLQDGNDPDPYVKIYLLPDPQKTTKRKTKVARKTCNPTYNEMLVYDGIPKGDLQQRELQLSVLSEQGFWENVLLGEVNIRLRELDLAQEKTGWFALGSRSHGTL
T4 sequence (P42336 whole entry E542K): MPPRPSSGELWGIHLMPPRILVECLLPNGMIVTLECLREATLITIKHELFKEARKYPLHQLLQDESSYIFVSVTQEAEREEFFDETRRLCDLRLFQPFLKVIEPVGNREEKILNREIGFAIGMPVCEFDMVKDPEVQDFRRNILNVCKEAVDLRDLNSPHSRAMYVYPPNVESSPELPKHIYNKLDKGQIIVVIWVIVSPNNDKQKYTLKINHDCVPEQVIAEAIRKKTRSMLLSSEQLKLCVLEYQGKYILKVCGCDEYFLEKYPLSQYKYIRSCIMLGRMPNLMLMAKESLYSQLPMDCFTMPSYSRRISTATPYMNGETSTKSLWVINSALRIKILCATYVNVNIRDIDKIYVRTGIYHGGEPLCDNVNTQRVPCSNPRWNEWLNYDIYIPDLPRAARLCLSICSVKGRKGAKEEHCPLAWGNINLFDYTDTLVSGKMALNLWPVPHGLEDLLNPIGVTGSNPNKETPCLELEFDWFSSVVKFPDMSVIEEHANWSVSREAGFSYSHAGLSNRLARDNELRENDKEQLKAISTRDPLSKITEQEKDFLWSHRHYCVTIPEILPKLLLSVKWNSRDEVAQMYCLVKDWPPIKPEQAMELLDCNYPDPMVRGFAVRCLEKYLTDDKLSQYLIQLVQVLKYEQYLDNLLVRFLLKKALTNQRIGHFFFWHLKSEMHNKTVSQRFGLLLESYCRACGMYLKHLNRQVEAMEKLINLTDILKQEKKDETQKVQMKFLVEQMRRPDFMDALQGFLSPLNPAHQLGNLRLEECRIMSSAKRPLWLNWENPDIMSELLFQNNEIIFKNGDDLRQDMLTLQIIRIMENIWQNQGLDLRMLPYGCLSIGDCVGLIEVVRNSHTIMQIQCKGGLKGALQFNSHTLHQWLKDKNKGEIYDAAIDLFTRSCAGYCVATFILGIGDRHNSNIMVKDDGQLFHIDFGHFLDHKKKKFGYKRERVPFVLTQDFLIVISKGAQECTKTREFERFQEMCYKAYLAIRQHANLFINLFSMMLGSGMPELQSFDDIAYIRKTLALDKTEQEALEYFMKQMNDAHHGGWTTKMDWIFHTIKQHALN
T3 sequence (P07949 29-1114): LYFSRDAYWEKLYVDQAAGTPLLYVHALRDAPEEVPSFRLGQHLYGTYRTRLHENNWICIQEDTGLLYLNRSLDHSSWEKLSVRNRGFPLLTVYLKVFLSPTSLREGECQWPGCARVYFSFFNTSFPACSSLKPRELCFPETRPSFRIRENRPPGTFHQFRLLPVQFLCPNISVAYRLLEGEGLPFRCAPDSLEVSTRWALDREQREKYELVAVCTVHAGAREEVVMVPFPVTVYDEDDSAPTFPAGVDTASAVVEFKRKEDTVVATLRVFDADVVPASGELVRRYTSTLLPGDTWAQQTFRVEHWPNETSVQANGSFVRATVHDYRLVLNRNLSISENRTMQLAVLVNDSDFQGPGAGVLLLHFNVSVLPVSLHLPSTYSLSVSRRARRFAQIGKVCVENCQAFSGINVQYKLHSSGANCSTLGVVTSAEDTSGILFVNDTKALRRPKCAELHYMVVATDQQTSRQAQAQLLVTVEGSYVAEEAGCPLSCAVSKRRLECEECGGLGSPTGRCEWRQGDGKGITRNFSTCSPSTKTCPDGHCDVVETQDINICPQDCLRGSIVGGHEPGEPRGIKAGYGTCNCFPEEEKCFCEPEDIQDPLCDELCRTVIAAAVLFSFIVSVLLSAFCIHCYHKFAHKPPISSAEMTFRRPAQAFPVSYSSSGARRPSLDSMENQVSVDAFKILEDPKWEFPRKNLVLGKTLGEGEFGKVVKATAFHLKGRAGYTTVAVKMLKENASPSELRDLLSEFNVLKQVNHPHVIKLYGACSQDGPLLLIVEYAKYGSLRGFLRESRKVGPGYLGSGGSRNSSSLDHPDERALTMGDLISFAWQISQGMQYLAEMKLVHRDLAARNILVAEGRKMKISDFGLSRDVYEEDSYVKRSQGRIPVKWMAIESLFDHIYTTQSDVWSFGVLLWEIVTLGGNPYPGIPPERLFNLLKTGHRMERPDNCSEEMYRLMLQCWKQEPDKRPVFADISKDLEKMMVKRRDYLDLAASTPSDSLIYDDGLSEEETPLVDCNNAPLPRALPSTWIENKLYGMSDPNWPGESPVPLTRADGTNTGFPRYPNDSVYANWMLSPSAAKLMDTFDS

| Compound | remaining binding at 1 µM [1] [%] | remaining binding at 1 µM [2] [%] | remaining binding at 1 µM [3] [%] | remaining binding at 1 µM [4] [%] | remaining binding at 1 µM [5] [%] | remaining binding at 1 µM [6] [%] | remaining binding at 1 µM [7] [%] | remaining binding at 1 µM [8] [%] | remaining binding at 1 µM [9] [%] |
| --- | --- | --- | --- | --- | --- | --- | --- | --- | --- |
| Clc1cc(NCC2CC2)c2ncc(-c3ccc4[nH]ncc4c3)n2n1 [compound 2, 6-Chloro-N-(cyclopropylmethyl)-3-(1H-indazol-5-yl)imidazo[1,2-b]pyridazin-8-amine] | 78 | 87 | 100 | 72 | 86 | 70 | 99 | 95 | 85 |
| O=C(CN1CCOCC1)N[C@H]1CC[C@H](Nc2cc(Cl)nn3c(-c4ccc5[nH]ncc5c4)cnc23)CC1 [compound 26] | 87 | 59 | 100 | 93 | 97 | 100 | 93 | 92 | 34 |
| CN1CCC(CNc2cc(Cl)nn3c(-c4cc5nc(Nc6ccccc6)[nH]c5cc4F)cnc23)CC1 [compound 31, 6-Chloro-3-(6-fluoro-2-(phenylamino)-1H-benzo[d]imidazol-5-yl)-N-((1-methylpiperidin-4-yl)methyl)imidazo[1,2-b]pyridazin-8-amine] | 81 | 100 | 96 | 65 | 100 | 100 | 99 | 96 | 84 |
